As usually defined, the IC50 is the point on the concentration scale where inhibition reaches its midpoint.

This experiment deals with T1, human TLR9 (Homo sapiens, UniProt Q9NR96).
T1 construct: host or cells: HEK-Blue cells (HEK293-derived reporter line)
T1 sequence (Q9NR96 26-1032): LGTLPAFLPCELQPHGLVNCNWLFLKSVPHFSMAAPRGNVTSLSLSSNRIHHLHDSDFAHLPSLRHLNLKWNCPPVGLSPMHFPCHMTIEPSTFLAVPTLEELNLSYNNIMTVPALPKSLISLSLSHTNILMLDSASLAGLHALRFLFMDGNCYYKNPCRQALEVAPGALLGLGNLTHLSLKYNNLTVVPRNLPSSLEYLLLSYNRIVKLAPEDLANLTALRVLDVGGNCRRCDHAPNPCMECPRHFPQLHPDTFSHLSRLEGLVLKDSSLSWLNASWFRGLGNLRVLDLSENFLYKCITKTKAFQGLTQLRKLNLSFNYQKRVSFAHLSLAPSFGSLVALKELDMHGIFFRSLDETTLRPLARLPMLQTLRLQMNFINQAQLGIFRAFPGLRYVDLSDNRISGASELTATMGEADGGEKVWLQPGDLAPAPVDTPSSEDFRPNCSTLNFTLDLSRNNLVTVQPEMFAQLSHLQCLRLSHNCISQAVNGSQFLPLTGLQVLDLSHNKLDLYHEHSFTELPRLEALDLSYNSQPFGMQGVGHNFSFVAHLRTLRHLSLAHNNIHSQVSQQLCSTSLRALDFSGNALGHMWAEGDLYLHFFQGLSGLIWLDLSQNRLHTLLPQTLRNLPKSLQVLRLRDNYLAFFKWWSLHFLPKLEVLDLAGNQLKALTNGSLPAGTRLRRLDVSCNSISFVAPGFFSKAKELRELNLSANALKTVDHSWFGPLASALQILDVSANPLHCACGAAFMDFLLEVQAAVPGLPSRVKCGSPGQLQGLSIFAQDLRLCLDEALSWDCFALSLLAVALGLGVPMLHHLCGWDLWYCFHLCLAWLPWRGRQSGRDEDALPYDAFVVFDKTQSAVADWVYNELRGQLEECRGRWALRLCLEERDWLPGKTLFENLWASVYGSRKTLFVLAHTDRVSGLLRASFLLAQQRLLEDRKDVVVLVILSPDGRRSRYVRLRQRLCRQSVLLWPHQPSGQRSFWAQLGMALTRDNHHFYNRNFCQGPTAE
Nature of the experiment: TLR9 inhibition reporter assay (HEK-Blue cells, secreted embryonic alkaline phosphatase reporter). The experiment is classed as cell-based. As to the method: TLR7/8/9 Inhibition Reporter Assays
HEK-Blue™-cells (Invivogen) overexpressing human TLR7, TLR8 or TLR9 receptors were used for screening inhibitors of these receptors using an inducible SLAP (secreted embryonic alkaline phosphatase) reporter gene under the control of the […] minimal promoter fused to five NF-κB and AP-1-binding sites. Briefly, cells are seeded into Greiner 384 well plates (15000 cells per well for TLR7, 20,000 for TLR8 and 25,000 for TLR9) and then treated with test compounds in DMSO to yield a final dose response concentration range of 0.05 nM-50 μM. After a 30 minute compound pre-treatment at room temperature, the cells are then stimulated with a TLR7 ligand (gardiquimod at a final concentration of 7.5 μM), TLR8 ligand (R848 at a final concentration of 15.9 μM) or TLR9 ligand (ODN2006 at a final concentration of 5 nM) to activate NF-κB and AP-1 which induce the production of SLAP. After a 22 hour incubation at 37° C., […], SLAP levels are determined with the addition of HEK-Blue™ Detection reagent (Invivogen), a cell culture medium that allows for detection of SLAP, according to manufacturer's specifications. The percent inhibition is determined as the […] in the HEK-Blue signal present in wells treated with agonist plus DMSO alone compared to wells treated with a known inhibitor.

The mark [1] stands for this setting: HEK-Blue cells overexpressing human TLR9, stimulated with ODN2006 5 nM, read-out: TLR 9 IC50.

Molecules are shown by their SMILES. Where two headings read alike, the source gives them in different places.

Compound `Cc1cc(C2CCN(C3CCCN(CC4CC4)CC3)CC2)cc2c1nc(-c1ccc(S(C)(=O)=O)cc1)n2C` (stereo not shown) [Example 137, 6-(1-(1-(cyclopropylmethyl)azepan-4-yl)piperidin-4-yl)-1,4-dimethyl-2-(4-(methylsulfonyl)phenyl)-1H-benzo[d]imidazole] yielded an IC50 of 19 nM. For the same compound, under setting [1], the IC50 turned out to be 19 nM.

Compound `Cc1cc(C2CCN(C3CCCN(CC4CCC4)CC3)CC2)cc2c1nc(-c1ccc(S(C)(=O)=O)cc1)n2C` (stereo not shown) [Example 138, 6-(1-(1-(cyclobutylmethyl)azepan-4-yl)piperidin-4-yl)-1,4-dimethyl-2-(4-(methylsulfonyl)phenyl)-1H-benzo[d]imidazole] gave an IC50 of 62 nM. The 50% inhibitory concentration (IC50) under setting [1] came out at 62 nM.

The compound `Cc1cc(C2CCN(C3CC4(C3)CN(C(C)C)C4)CC2)cc2c1nc(-c1ccc(S(C)(=O)=O)cc1)n2C` [Example 139, 6-(1-(2-isopropyl-2-azaspiro[3.3]heptan-6-yl)piperidin-4-yl)-1,4-dimethyl-2-(4-(methylsulfonyl)phenyl)-1H-benzo[d]imidazole] gave a half-inhibitory concentration (IC50) of 210 nM. For the same compound, the IC50 under setting [1] is 211 nM.

The compound `Cc1cc(C2CCN(C3CC4(C3)CN(C3CCC3)C4)CC2)cc2c1nc(-c1ccc(S(C)(=O)=O)cc1)n2C` [Example 140, 6-(1-(2-cyclobutyl-2-azaspiro[3.3]heptan-6-yl)piperidin-4-yl)-1,4-dimethyl-2-(4-(methylsulfonyl)phenyl)-1H-benzo[d]imidazole] displayed an IC50 of 290 nM. The IC50 under setting [1] was found to be 290 nM.

`Cc1cc(C2CCN(C3CC4(C3)CN(CC(C)C)C4)CC2)cc2c1nc(-c1ccc(S(C)(=O)=O)cc1)n2C` [Example 141, 6-(1-(2-isobutyl-2-azaspiro[3.3]heptan-6-yl)piperidin-4-yl)-1,4-dimethyl-2-(4-(methylsulfonyl)phenyl)-1H-benzo[d]imidazole] displayed a 50% inhibitory concentration (IC50) of 250 nM. In addition, under setting [1], the IC50 was 248 nM.

`Cc1cc(C2CCN(C3CC4(C3)CN(CC3CC3)C4)CC2)cc2c1nc(-c1ccc(S(C)(=O)=O)cc1)n2C` [Example 142, 6-(1-(2-(cyclopropylmethyl)-2-azaspiro[3.3]heptan-6-yl)piperidin-4-yl)-1,4-dimethyl-2-(4-(methylsulfonyl)phenyl)-1H-benzo[d]imidazole] displayed a half-inhibitory concentration (IC50) of 68 nM. In addition, the IC50 under setting [1] turned out to be 68 nM.

`Cc1cc(C2CCN(C3CC4(C3)CN(CC3CCC3)C4)CC2)cc2c1nc(-c1ccc(S(C)(=O)=O)cc1)n2C` [Example 143, 6-(1-(2-(cyclobutylmethyl)-2-azaspiro[3.3]heptan-6-yl)piperidin-4-yl)-1,4-dimethyl-2-(4-(methylsulfonyl)phenyl)-1H-benzo[d]imidazole] yielded an IC50 of 85 nM. For the same compound, the IC50 under setting [1] came to 85 nM.

Regarding `COc1ccc(-c2nc3c(C)cc(C4CCN(C5CC6CCC(C5)N6C(C)C)CC4)cc3n2C)cc1OC` (stereo not shown) [Example 144, 2-(3,4-dimethoxyphenyl)-6-(1-(8-isopropyl-8-azabicyclo[3.2.1]octan-3-yl)piperidin-4-yl)-1,4-dimethyl-1H-benzo[d]imidazole], half-maximal inhibition (IC50) was put at 62 nM. The IC50 under setting [1] amounted to 62 nM.

On to `COc1ccc(-c2nc3c(C)cc(C4CCN(C5CC6CCC(C5)N6C(C)C)CC4)cc3n2C)cc1OC` (stereo not shown) [Example 145, 2-(3,4-dimethoxyphenyl)-6-(1-(8-isopropyl-8-azabicyclo[3.2.1]octan-3-yl)piperidin-4-yl)-1,4-dimethyl-1H-benzo[d]imidazole], for which the IC50 turned out to be 24 nM. Besides, the IC50 under setting [1] worked out at 24 nM.

As to `COc1ccc(-c2nc3c(C)cc(C4CCN(C5CC6CCC(C5)N6C5CCC5)CC4)cc3n2C)cc1OC` (stereo not shown) [Example 146, 6-(1-(8-cyclobutyl-8-azabicyclo[3.2.1]octan-3-yl)piperidin-4-yl)-2-(3,4-dimethoxyphenyl)-1,4-dimethyl-1H-benzo[d]imidazole], it took 70 nM to reach half-maximal inhibition (IC50). Besides, the half-inhibitory concentration (IC50) under setting [1] was found to be 70 nM.

`COc1ccc(-c2nc3c(C)cc(C4CCN(C5CC6CCC(C5)N6C5CCC5)CC4)cc3n2C)cc1OC` (stereo not shown) [Example 147, 6-(1-(8-cyclobutyl-8-azabicyclo[3.2.1]octan-3-yl)piperidin-4-yl)-2-(3,4-dimethoxyphenyl)-1,4-dimethyl-1H-benzo[d]imidazole]: the half-inhibitory concentration (IC50) came to 200 nM. Moreover, under setting [1], the IC50 came out at 199 nM.

In the case of `COc1ccc(-c2nc3c(C)cc(C4CCN(C5CC6CCC(C5)N6CC5CC5)CC4)cc3n2C)cc1OC` (stereo not shown) [Example 148, 6-(1-(8-(cyclopropylmethyl)-8-azabicyclo[3.2.1]octan-3-yl)piperidin-4-yl)-2-(3,4-dimethoxyphenyl)-1,4-dimethyl-1H-benzo[d]imidazole], 34 nM corresponded to half-maximal inhibition (IC50). The IC50 under setting [1] stood at 34 nM.

Compound `COc1ccc(-c2nc3c(C)cc(C4CCN(C5CC6CCC(C5)N6CC5CC5)CC4)cc3n2C)cc1OC` (stereo not shown) [Example 149, 6-(1-(8-(cyclopropylmethyl)-8-azabicyclo[3.2.1]octan-3-yl)piperidin-4-yl)-2-(3,4-dimethoxyphenyl)-1,4-dimethyl-1H-benzo[d]imidazole] registered a half-maximal inhibitory concentration (IC50) of 47 nM. Moreover, the half-inhibitory concentration (IC50) under setting [1] amounted to 47 nM.

With `Cc1cc(-c2ccc(N3CCN(CC(C)C)CC3)cc2)cc2c1nc(-c1ccc(S(C)(=O)=O)cc1)n2C` [Example 170, 6-(4-(4-isobutylpiperazin-1-yl)phenyl)-1,4-dimethyl-2-(4-(methylsulfonyl)phenyl)-1H-benzo[d]imidazole], 4400 nM corresponded to half-maximal inhibition (IC50). Moreover, the half-inhibitory concentration (IC50) under setting [1] stood at 4440 nM.

The compound `Cc1cc(-c2ccc(N3CCN(CC4CC4)CC3)cc2)cc2c1nc(-c1ccc(S(C)(=O)=O)cc1)n2C` [Example 171, 6-(4-(4-(cyclopropylmethyl)piperazin-1-yl)phenyl)-1,4-dimethyl-2-(4-(methylsulfonyl)phenyl)-1H-benzo[d]imidazole] showed an IC50 of 650 nM. Moreover, the IC50 under setting [1] was 653 nM.

The compound `Cc1cc(-c2ccc(N3CCN(CC4CCC4)CC3)cc2)cc2c1nc(-c1ccc(S(C)(=O)=O)cc1)n2C` [Example 172, 6-(4-(4-(cyclobutylmethyl)piperazin-1-yl)phenyl)-1,4-dimethyl-2-(4-(methylsulfonyl)phenyl)-1H-benzo[d]imidazole] displayed an IC50 of 1800 nM. Besides, the IC50 under setting [1] turned out to be 1780 nM.

With `COCCN1CCN(c2ccc(-c3cc(C)c4nc(-c5ccc(S(C)(=O)=O)cc5)n(C)c4c3)cc2)CC1` [Example 173, 6-(4-(4-(2-methoxyethyl)piperazin-1-yl)phenyl)-1,4-dimethyl-2-(4-(methylsulfonyl)phenyl)-1H-benzo[d]imidazole], 1100 nM corresponded to half-maximal inhibition (IC50). In addition, the concentration for half-maximal inhibition (IC50) under setting [1] is 1110 nM.

`COc1ccc(-c2nc3ccc(C4CCN(C5CCN(C6CC6)CC5)CC4)c(F)c3[nH]2)cc1OC` [Example 175, 6-(1′-cyclopropyl-[1,4′-bipiperidin]-4-yl)-2-(3,4-dimethoxyphenyl)-7-fluoro-1H-benzo[d]imidazole]: the IC50 was determined as 530 nM. Further, the IC50 under setting [1] is 527 nM.

In the case of `Cc1cc(-c2ccc(N3CCN(C4CCOCC4)CC3)cc2)cc2c1nc(-c1ccc(S(C)(=O)=O)cc1)n2C` [Example 176, 1,4-dimethyl-2-(4-(methylsulfonyl)phenyl)-6-(4-(4-(tetrahydro-2H-pyran-4-yl)piperazin-1-yl)phenyl)-1H-benzo[d]imidazole], it took 680 nM to reach half-maximal inhibition (IC50). Besides, the half-inhibitory concentration (IC50) under setting [1] turned out to be 680 nM.

As to `CS(=O)(=O)c1ccc(-c2nc3c(F)cc(C4CCN(C5CCN(CC6CC6)CC5)CC4)cc3n2C2CC2)cc1` [Example 320, 1-cyclopropyl-6-(1′-(cyclopropylmethyl)-[1,4′-bipiperidin]-4-yl)-4-fluoro-2-(4-(methylsulfonyl)phenyl)-1H-benzo[d]imidazole], the IC50 reads like this: under setting [1], 77 nM; (HEK-Blue human TLR9 reporter cells) 77 nM.

The values above are taken from patent US12492188B2, “1H-benzo[D]imidazole derivatives as TLR9 inhibitors for the treatment of fibrosis” (BRISTOL-MYERS SQUIBB COMPANY, priority 2020, dated 2025).
